Results from ChEMBL document CHEMBL4837206, “Synthesis and biological evaluation of novel isoxazole-piperazine hybrids as potential anti-cancer agents with inhibitory effect on liver cancer stem cells” (Eur J Med Chem, 2021).
Blank lines part the entries; values can stand above or below the molecule they belong to. Activity calls are given as the source filed them. No cut-off for these calls is given here.

How the values were obtained:
SNU-475 [1] = test: Induction of apoptosis in human SNU-475 cells at 5 uM measured after 72 hrs by Annexin V-FITC/propidium iodide staining based flow cytometric analysis; assay type: functional, cell-based
Mahlavu [2] = test: Cell cycle arrest in human Mahlavu cells assessed as increase in accumulation of cells at G0/G1 phase at 5 uM measured after 48 hrs by propidium iodide staining based flow cytometric analysis; assay type: functional
[3] = molecular target: T1, Mitogen-activated protein kinase; ERK1/ERK2 (Homo sapiens) (UniProt P27361+P28482); test: Downregulation of ERK1/2 phosphorylation at T202/Y204 residue in human SNU-475 cells at 5 uM measured after 72 hrs by Western blot analysis; assay type: cell-based
T1 sequence (P27361 whole entry, looked up): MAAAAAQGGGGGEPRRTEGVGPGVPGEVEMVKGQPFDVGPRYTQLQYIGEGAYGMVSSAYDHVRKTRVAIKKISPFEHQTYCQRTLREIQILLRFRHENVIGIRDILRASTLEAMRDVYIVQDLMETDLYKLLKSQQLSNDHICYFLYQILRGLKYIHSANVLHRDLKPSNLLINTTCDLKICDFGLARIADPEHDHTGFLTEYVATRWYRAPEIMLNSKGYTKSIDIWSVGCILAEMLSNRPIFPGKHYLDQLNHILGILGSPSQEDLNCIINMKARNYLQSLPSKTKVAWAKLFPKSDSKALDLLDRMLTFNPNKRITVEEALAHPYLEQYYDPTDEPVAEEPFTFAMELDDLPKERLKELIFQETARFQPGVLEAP
T1 sequence (P28482 whole entry, looked up): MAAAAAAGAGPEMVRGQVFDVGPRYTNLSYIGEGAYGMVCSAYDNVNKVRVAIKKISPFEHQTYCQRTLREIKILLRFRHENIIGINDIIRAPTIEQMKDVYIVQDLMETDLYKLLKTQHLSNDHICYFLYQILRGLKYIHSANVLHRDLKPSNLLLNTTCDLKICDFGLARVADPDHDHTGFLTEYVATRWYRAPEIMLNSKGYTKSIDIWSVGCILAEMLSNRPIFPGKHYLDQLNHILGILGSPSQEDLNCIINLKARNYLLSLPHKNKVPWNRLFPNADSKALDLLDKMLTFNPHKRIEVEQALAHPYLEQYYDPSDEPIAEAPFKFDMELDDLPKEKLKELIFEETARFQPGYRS

Mahlavu [4] = test: Inhibition of cell stemness in human Mahlavu cells assessed as decrease in OCT4 level at 10 uM measured after 72 hrs by flow cytometry analysis; assay type: functional, cell-based
Mahlavu [5] = test: Antiproliferative activity against human Mahlavu cells assessed as reduction in cell viability measured for 180 hrs by RT-CES analysis; assay type: functional, cell-based; conditions: dose 2.5-10 µM
SNU-475 [6] = test: Induction of apoptosis in human SNU-475 cells assessed as apoptotic body formation measured after 48 hrs by Hoechst33258 staining based inverted fluorescent microscopic method; assay type: functional, cell-based
Huh-7 [7] = test: Inhibition of cell stemness in human Huh-7 cells assessed as decrease in OCT4 level at 10 uM measured after 72 hrs by flow cytometry analysis; assay type: functional, cell-based
Huh-7 [8] = test: Activation of p53 harboring C220T mutant in human Huh-7 cells at 5 uM measured after 72 hrs by Western blot analysis; assay type: cell-based
Mahlavu [9] = test: Induction of apoptosis in human Mahlavu cells assessed as nuclear fragmentation measured after 48 hrs by Hoechst33258 staining based inverted fluorescent microscopic method; assay type: functional, cell-based
Huh-7 [10] = test: Antiproliferative activity against human Huh-7 cells assessed as reduction in cell viability measured after 72 hrs by SRB assay; assay type: functional, cell-based; conditions: Huh-7, 72 h
Huh-7 [11] = test: Induction of apoptosis in human Huh-7 cells at 5 uM measured after 72 hrs by Annexin V-FITC/propidium iodide staining based flow cytometric analysis; assay type: functional, cell-based
HepG2 [12] = test: Antiproliferative activity against human HepG2 cells assessed as reduction in cell viability measured after 90 hrs by RT-CES analysis; assay type: functional, cell-based
HepG2 [13] = test: Induction of apoptosis in human HepG2 cells assessed as chromatin condensation measured after 48 hrs by Hoechst33258 staining based inverted fluorescent microscopic method; assay type: functional, cell-based
HepG2 [14] = test: Induction of apoptosis in human HepG2 cells at 5 uM measured after 72 hrs by Annexin V-FITC/propidium iodide staining based flow cytometric analysis; assay type: functional, cell-based
Huh-7 [15] = test: Induction of apoptosis in human Huh-7 cells assessed as apoptotic body formation measured after 48 hrs by Hoechst33258 staining based inverted fluorescent microscopic method; assay type: functional, cell-based
Huh-7 [16] = test: Cell cycle arrest in human Huh-7 cells assessed as increase in accumulation of cells at G2/M phase at 5 uM measured after 48 hrs by propidium iodide staining based flow cytometric analysis; assay type: functional
[17] = molecular target: T1, Mitogen-activated protein kinase; ERK1/ERK2 (Homo sapiens); test: Inhibition of ERK1/2 phosphorylation at T202/Y204 residue in human Mahlavu cells at 5 uM measured after 72 hrs by Western blot analysis; assay type: cell-based
Huh-7 [18] = test: Inhibition of cell stemness in human Huh-7 cells assessed as reduction in size of tumor spheres at 10 uM incubated for 72 hrs followed by incubation in sphere formation medium for 7 days by microscopic analysis; assay type: functional, cell-based; conditions: time 10.0 day
SNU-475 [19] = test: Cell cycle arrest in human SNU-475 cells assessed as increase in accumulation of cells at G2/M phase at 5 uM measured after 48 hrs by propidium iodide staining based flow cytometric analysis; assay type: functional
SNU-475 [20] = test: Antiproliferative activity against human SNU-475 cells assessed as reduction in cell viability measured for 180 hrs by RT-CES analysis; assay type: functional, cell-based; conditions: dose 2.5-10 µM
[21] = molecular target: T2, Serine/threonine-protein kinase AKT (Homo sapiens) (UniProt P31751+Q9Y243+P31749); test: Inhibition of Akt phosphorylation at Ser473 residue in human Mahlavu cells at 5 uM measured after 72 hrs by Western blot analysis; assay type: cell-based
T2 sequence (P31749 whole entry, looked up): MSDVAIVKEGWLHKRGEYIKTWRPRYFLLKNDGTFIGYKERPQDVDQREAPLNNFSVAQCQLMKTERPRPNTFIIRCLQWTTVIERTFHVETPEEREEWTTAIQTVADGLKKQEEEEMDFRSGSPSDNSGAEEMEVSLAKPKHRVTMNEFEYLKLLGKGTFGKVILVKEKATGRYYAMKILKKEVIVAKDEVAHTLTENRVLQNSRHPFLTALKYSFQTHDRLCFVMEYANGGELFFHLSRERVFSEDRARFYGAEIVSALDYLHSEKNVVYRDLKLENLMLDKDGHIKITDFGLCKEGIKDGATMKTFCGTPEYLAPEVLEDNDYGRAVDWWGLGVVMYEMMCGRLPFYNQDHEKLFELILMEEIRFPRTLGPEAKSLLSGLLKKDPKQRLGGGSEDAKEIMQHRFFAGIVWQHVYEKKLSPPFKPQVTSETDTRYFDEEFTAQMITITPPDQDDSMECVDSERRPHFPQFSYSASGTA
T2 sequence (P31751 whole entry, looked up): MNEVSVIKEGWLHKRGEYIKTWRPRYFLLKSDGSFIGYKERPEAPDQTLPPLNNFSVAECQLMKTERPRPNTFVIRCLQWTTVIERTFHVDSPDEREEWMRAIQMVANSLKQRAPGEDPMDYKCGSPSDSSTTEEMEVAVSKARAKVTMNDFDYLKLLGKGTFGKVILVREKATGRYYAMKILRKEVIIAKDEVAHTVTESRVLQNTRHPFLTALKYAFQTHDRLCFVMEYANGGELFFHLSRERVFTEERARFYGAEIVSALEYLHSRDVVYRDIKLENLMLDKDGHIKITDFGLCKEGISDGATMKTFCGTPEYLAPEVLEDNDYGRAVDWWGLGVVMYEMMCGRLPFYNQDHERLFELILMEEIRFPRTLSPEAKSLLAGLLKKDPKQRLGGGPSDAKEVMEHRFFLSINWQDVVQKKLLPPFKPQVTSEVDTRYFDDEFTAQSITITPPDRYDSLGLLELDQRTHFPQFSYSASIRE
T2 sequence (Q9Y243 whole entry, looked up): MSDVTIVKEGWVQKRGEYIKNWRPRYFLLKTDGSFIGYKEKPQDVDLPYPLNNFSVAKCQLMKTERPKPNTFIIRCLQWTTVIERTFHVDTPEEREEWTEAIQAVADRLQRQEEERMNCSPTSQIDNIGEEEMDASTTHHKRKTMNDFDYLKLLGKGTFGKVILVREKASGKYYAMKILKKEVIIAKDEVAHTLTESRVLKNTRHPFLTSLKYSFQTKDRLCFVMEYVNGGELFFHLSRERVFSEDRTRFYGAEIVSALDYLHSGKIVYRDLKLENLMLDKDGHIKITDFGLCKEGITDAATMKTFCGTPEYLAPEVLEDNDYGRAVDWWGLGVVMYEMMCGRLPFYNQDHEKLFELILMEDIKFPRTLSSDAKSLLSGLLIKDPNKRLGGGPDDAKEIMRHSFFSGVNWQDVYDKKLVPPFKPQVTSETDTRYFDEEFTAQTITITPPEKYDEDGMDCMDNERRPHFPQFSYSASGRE

Mahlavu [22] = test: Activation of p53 harboring G249T mutant in human Mahlavu cells assessed as upregulation of p53 phosphorylation at Ser15 residue at 5 uM incubated for 72 hrs by western blot analysis; assay type: cell-based; conditions: filed as activator
Mahlavu [23] = test: Inhibition of cell stemness in human Mahlavu cells assessed as decrease in NANOG mRNA level at 10 uM measured after 72 hrs by RT-qPCR analysis; assay type: functional, cell-based
SNU-475 [24] = test: Activation of p53 harboring A239G/T275C/A288G mutant in human SNU-475 cells assessed as upregulation of p53 acetylation at Lys382 residue at 5 uM incubated for 72 hrs by western blot analysis; assay type: cell-based; conditions: filed as activator
[25] = molecular target: T2, Serine/threonine-protein kinase AKT (Homo sapiens); test: Inhibition of Akt phosphorylation at Ser473 residue in human SNU-475 cells at 5 uM measured after 72 hrs by Western blot analysis; assay type: cell-based

- inhibition [3]: Active
- IC50 (Huh-7 [10]): 1.7 µM
- inhibition [17]: Active
- inhibition [21]: Active
Compound: FC(F)(F)c1ccc(CN2CCN(Cc3cc(-c4ccc(OCc5ccccc5)cc4)on3)CC2)cc1
- Activity (SNU-475 [1]): Active
- Activity (Mahlavu [2]): Active
- inhibition (Mahlavu [4]): Active
- Activity (Mahlavu [5]): Dose-Dependent Effect
- Activity (SNU-475 [6]): Active
- inhibition (Huh-7 [7]): inactive
- Activity (Huh-7 [8]): inactive
- Activity (Mahlavu [9]): Active
- Activity (Huh-7 [11]): Active
- Activity (HepG2 [12]): Active
- Activity (HepG2 [13]): Active
- Activity (HepG2 [14]): Active
- Activity (Huh-7 [15]): Active
- Activity (Huh-7 [16]): Active
- inhibition (Huh-7 [18]): Active
- Activity (SNU-475 [19]): Active
- Activity (SNU-475 [20]): Dose-Dependent Effect
- Activity (Mahlavu [22]): Active

- inhibition [3]: Active
- IC50 (Huh-7 [10]): 0.09 µM
- inhibition [17]: Active
- inhibition [25]: Active
- inhibition [21]: Active
Compound: N#Cc1cccc(COc2ccc(-c3cc(CN4CCN(Cc5ccc(C(F)(F)F)cc5)CC4)no3)cc2F)c1
- Activity (SNU-475 [1]): Active
- Activity (Mahlavu [2]): Active
- inhibition (Mahlavu [4]): Active
- inhibition (Mahlavu [23]): Active
- Activity (Mahlavu [5]): Dose-Dependent Effect
- Activity (SNU-475 [6]): Active
- inhibition (Huh-7 [7]): inactive
- Activity (Huh-7 [8]): inactive
- Activity (Mahlavu [9]): Active
- Activity (Huh-7 [11]): Active
- Activity (SNU-475 [24]): Active
- Activity (HepG2 [12]): Active
- Activity (HepG2 [13]): Active
- Activity (HepG2 [14]): Active
- Activity (Huh-7 [15]): Active
- Activity (Huh-7 [16]): Active
- inhibition (Huh-7 [18]): Active
- Activity (SNU-475 [19]): Active
- Activity (SNU-475 [20]): Dose-Dependent Effect
